Assay results: patent US8906904B2, “Alkoxy pyrazoles as soluble guanylate cyclase activators” (Boehringer Ingelheim International GmbH, priority 2012, dated 2014)
In brackets after ≈: the same amount, converted by molar mass.

Assay: Assessment of solubility (McIlvaine buffers, 24 h shake, UPLC-UV)
Assay type: physicochemical
Settings: kinetic from dmso stock
Method in brief: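 Compounds from 10 mM DMSO stocks were shaken for 24 h at room temperature in McIlvaine buffers at pH 2.2, 4.5 and 6.8 (2.5% v/v DMSO final), then filtered. Filtrates were quantified by UPLC-UV at 254 nm against a 50:50 acetonitrile/water reference assumed fully dissolved, as a single determination.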

solubility at 24 h (pH 2.2, aqueous buffer) [µg/mL] | solubility at 24 h (pH 4.5, aqueous buffer) [µg/mL] | solubility at 24 h (pH 6.8, aqueous buffer) [µg/mL] | Structure (SMILES)
95 (≈ 152 µM) | 47 (≈ 75.4 µM) | 51 (≈ 81.8 µM) | CCOc1c(C(=O)O)cnn1-c1cccc(-c2cccc(Cl)c2OCc2ccc3c(c2)CCN(C2CCC(F)(F)CC2)C3)n1 [Compound 57]
92 (≈ 170 µM) | 74 (≈ 137 µM) | 78 (≈ 144 µM) | Cc1cccc(-c2cccc(-n3ncc(C(=O)O)c3OC(C)C)n2)c1OCc1ccc2c(c1)CCN(C(C)C)C2 [Compound 37]
130 (≈ 223 µM) | 110 (≈ 189 µM) | 99 (≈ 170 µM) | COc1c(C(=O)O)cnn1-c1cccc(-c2cccc(C)c2OCc2ccc3c(c2)CCN(C2CCOC(C)(C)C2)C3)n1 (stereo not drawn) [Compound 61]
110 (≈ 184 µM) | 84 (≈ 141 µM) | 74 (≈ 124 µM) | CCOc1c(C(=O)O)cnn1-c1cccc(-c2cccc(C)c2OCc2ccc3c(c2)CCN(C2CC(C)OC(C)C2)C3)n1 (stereo not drawn) [Compound 65]
91 (≈ 155 µM) | 68 (≈ 116 µM) | 73 (≈ 124 µM) | CCOc1c(C(=O)O)cnn1-c1cccc(-c2cccc(C)c2OCc2ccc3c(c2)CCN(C2CCOCC2F)C3)n1 (stereo not drawn) [Compound 94]
130 (≈ 223 µM) | 92 (≈ 158 µM) | 81 (≈ 139 µM) | COc1c(C(=O)O)cnn1-c1cccc(-c2cccc(C)c2OCc2ccc3c(c2)C(C)(C)CN(C2CCOCC2)C3)n1 [Compound 89]
85 (≈ 149 µM) | 71 (≈ 125 µM) | 74 (≈ 130 µM) | CCOc1c(C(=O)O)cnn1-c1cccc(-c2cccc(C)c2OCc2ccc3c(c2)CCN(CC2CCOC2)C3)n1 (stereo not drawn) [Compound 68]
110 (≈ 180 µM) | 94 (≈ 154 µM) | 95 (≈ 156 µM) | CCOc1c(C(=O)O)cnn1-c1cccc(-c2cccc(C)c2OCc2ccc3c(c2)CCN(CC2CCOC(C)(C)C2)C3)n1 (stereo not drawn) [Compound 80]
110 (≈ 197 µM) | 90 (≈ 161 µM) | 92 (≈ 165 µM) | COc1c(C(=O)O)cnn1-c1cccc(-c2cccc(F)c2OCc2ccc3c(c2)CCN(C2CCOCC2)C3)n1 [Compound 63]
82 (≈ 144 µM) | 65 (≈ 114 µM) | 68 (≈ 120 µM) | CCOc1c(C(=O)O)cnn1-c1cccc(-c2cccc(C)c2OCc2ccc3c(c2)CCN(CC2(C)COC2)C3)n1 [Compound 34]
110 (≈ 178 µM) | 83 (≈ 135 µM) | 88 (≈ 143 µM) | Cc1cccc(-c2cccc(-n3ncc(C(=O)O)c3OC(C)C)n2)c1OCc1ccc2c(c1)CCN(C1CCC(F)(F)CC1)C2 [Compound 2]
100 (≈ 172 µM) | 81 (≈ 139 µM) | 81 (≈ 139 µM) | COc1c(C(=O)O)cnn1-c1cccc(-c2cccc(C)c2OCc2ccc3c(c2)CCN([C@H]2CC[C@H](OC)CC2)C3)n1 [Compound 90]
111 (≈ 197 µM) | 85 (≈ 151 µM) | 89 (≈ 158 µM) | CCOc1c(C(=O)O)cnn1-c1cccc(-c2cccc(Cl)c2OCc2ccc3c(c2)CCN(CCOC)C3)n1 [Compound 58]
96 (≈ 169 µM) | 75 (≈ 132 µM) | 80 (≈ 141 µM) | Cc1cccc(-c2cccc(-n3ncc(C(=O)O)c3OC(C)C)n2)c1OCc1ccc2c(c1)CCN(C1CCOC1)C2 (stereo not drawn) [Compound 41]
100 (≈ 172 µM) | 81 (≈ 139 µM) | 81 (≈ 139 µM) | COc1c(C(=O)O)cnn1-c1cccc(-c2cccc(C)c2OCc2ccc3c(c2)CCN([C@H]2CC[C@@H](OC)CC2)C3)n1 [Compound 91]
82 (≈ 144 µM) | 61 (≈ 107 µM) | 73 (≈ 128 µM) | Cc1cccc(-c2cccc(-n3ncc(C(=O)O)c3OC(C)C)n2)c1OCc1ccc2c(c1C)CCN(C1COC1)C2 [Compound 45]
95 (≈ 171 µM) | 79 (≈ 142 µM) | 82 (≈ 148 µM) | Cc1cccc(-c2cccc(-n3ncc(C(=O)O)c3OC(C)C)n2)c1OCc1ccc2c(c1C)CCN(C(C)C)C2 [Compound 43]
100 (≈ 172 µM) | 86 (≈ 148 µM) | 89 (≈ 153 µM) | CCOc1c(C(=O)O)cnn1-c1cccc(-c2cccc(C)c2OCc2ccc3c(c2)CCN(C2CCOC(C)C2)C3)n1 (stereo not drawn) [Compound 78]
63 (≈ 106 µM) | 54 (≈ 90.5 µM) | 55 (≈ 92.2 µM) | CCOc1c(C(=O)O)cnn1-c1cccc(-c2cccc(C)c2OCc2ccc3c(c2)CCN(C2CCOC(C)(C)C2)C3)n1 (stereo not drawn) [Compound 66]
92 (≈ 169 µM) | 69 (≈ 127 µM) | 58 (≈ 106 µM) | CCOc1c(C(=O)O)cnn1-c1cccc(-c2cccc(C)c2OCc2ccc3c(c2)CCN(C(C)CF)C3)n1 (stereo not drawn) [Compound 49, 5-ethoxy-1-(6-{2-[2-(2-fluoro-1-methyl-ethyl)-1,2,3,4-tetrahydro-isoquinolin-6-ylmethoxy]-3-methyl-phenyl}-pyridin-2-yl)-1H-pyrazole-4-carboxylic acid]

solubility at 24 h (pH 2.2, aqueous buffer) [µg/mL] | solubility at 24 h (pH 4.5, aqueous buffer) [µg/mL] | solubility at 24 h (pH 6.8, aqueous buffer) [µg/mL] | Structure (SMILES)
100 (≈ 180 µM) | 81 (≈ 146 µM) | 75 (≈ 135 µM) | COc1c(C(=O)O)cnn1-c1cccc(-c2cccc(C)c2OCc2ccc3c(c2C)CCN(CC(C)(C)C)C3)n1 [Compound 30]
98 (≈ 165 µM) | 77 (≈ 130 µM) | 81 (≈ 136 µM) | COc1c(C(=O)O)cnn1-c1cccc(-c2cccc(C(F)(F)F)c2OCc2ccc3c(c2)CN(C2CCOCC2)C3)n1 [Compound 93]
90 (≈ 151 µM) | 63 (≈ 106 µM) | 75 (≈ 126 µM) | COc1c(C(=O)O)cnn1-c1cccc(-c2cccc(C(F)(F)F)c2OCc2ccc3c(c2C)CCN(C2COC2)C3)n1 [Compound 88]
98 (≈ 166 µM) | 76 (≈ 129 µM) | 72 (≈ 122 µM) | COc1c(C(=O)O)cnn1-c1cccc(-c2cccc(C)c2OCc2ccc3c(c2)CCN(C2CCC(F)(F)CC2)C3)n1 [Compound 5]
90 (≈ 144 µM) | 76 (≈ 122 µM) | 78 (≈ 125 µM) | CCOc1c(C(=O)O)cnn1-c1cccc(-c2cccc(C)c2OCc2ccc3c(c2)CCN(C2CC(C)(C)OC(C)(C)C2)C3)n1 [Compound 67]
110 (≈ 181 µM) | 88 (≈ 145 µM) | 95 (≈ 156 µM) | COc1c(C(=O)O)cnn1-c1cccc(-c2cccc(C(F)(F)F)c2OCc2ccc3c(c2)CCN(C2CCOCC2)C3)n1 [Compound 83]
86 (≈ 142 µM) | 57 (≈ 94.3 µM) | 64 (≈ 106 µM) | CCOc1c(C(=O)O)cnn1-c1cccc(-c2cccc(C)c2OCc2ccc3c(c2)CCN(C(C)CS(C)(=O)=O)C3)n1 (stereo not drawn) [Compound 70]
44 (≈ 78.5 µM) | 46 (≈ 82.1 µM) | 67 (≈ 120 µM) | COc1c(C(=O)O)cnn1-c1cccc(-c2cccc(C)c2OCc2ccc3c(c2)CCN(CC2CC2(F)F)C3)n1 (stereo not drawn) [Compound 72, 1-(6-{2-[2-(2,2-difluoro-cyclopropylmethyl)-1,2,3,4-tetrahydro-isoquinolin-6-ylmethoxy]-3-methyl-phenyl}-pyridin-2-yl)-5-methoxy-1H-pyrazole-4-carboxylic acid]
110 (≈ 193 µM) | 90 (≈ 158 µM) | 91 (≈ 160 µM) | COc1c(C(=O)O)cnn1-c1cccc(-c2cccc(C)c2OCc2ccc3c(c2)CCN(C2CCOCC2C)C3)n1 (stereo not drawn) [Compound 86]
99 (≈ 170 µM) | 81 (≈ 139 µM) | 85 (≈ 146 µM) | Cc1cccc(-c2cccc(-n3ncc(C(=O)O)c3OC(C)C)n2)c1OCc1ccc2c(c1)CCN(CC1(C)COC1)C2 [Compound 40]
100 (≈ 168 µM) | 87 (≈ 146 µM) | 89 (≈ 149 µM) | CCOc1c(C(=O)O)cnn1-c1cccc(-c2cccc(C)c2OCc2ccc3c(c2)CCN(C2CCOC(CC)C2)C3)n1 (stereo not drawn) [Compound 79]
94 (≈ 165 µM) | 75 (≈ 132 µM) | 78 (≈ 137 µM) | CCOc1c(C(=O)O)cnn1-c1cccc(-c2cccc(C)c2OCc2ccc3c(c2)CCN(C2CCOC2C)C3)n1 (stereo not drawn) [Compound 71]
100 (≈ 170 µM) | 78 (≈ 132 µM) | 75 (≈ 127 µM) | CCOc1c(C(=O)O)cnn1-c1cccc(-c2cccc(Cl)c2OCc2ccc3c(c2)CCN(C2CCOCC2)C3)n1 [Compound 54]
110 (≈ 191 µM) | 83 (≈ 144 µM) | 95 (≈ 165 µM) | COc1c(C(=O)O)cnn1-c1cccc(-c2cccc(C)c2OCc2ccc3c(c2)CCN(CCS(C)(=O)=O)C3)n1 [Compound 74]
95 (≈ 163 µM) | 80 (≈ 137 µM) | 87 (≈ 149 µM) | Cc1cccc(-c2cccc(-n3ncc(C(=O)O)c3OC(C)C)n2)c1OCc1ccc2c(c1)CCN(C1CCOCC1)C2 [Compound 1, 5-isopropoxy-1-(6-{3-methyl-2-[2-(tetrahydro-pyran-4-yl)-1,2,3,4-tetrahydro-isoquinolin-6-ylmethoxy]-phenyl}-pyridin-2-yl)-1H-pyrazole-4-carboxylic acid]
110 (≈ 196 µM) | 83 (≈ 148 µM) | 93 (≈ 166 µM) | CCOc1c(C(=O)O)cnn1-c1cccc(-c2cccc(Cl)c2OCc2ccc3c(c2)CCN(C2COC2)C3)n1 [Compound 51]
93 (≈ 171 µM) | 73 (≈ 135 µM) | 75 (≈ 138 µM) | COc1c(C(=O)O)cnn1-c1cccc(-c2cccc(C)c2OCc2ccc3c(c2)CCN(CC(C)(C)O)C3)n1 [Compound 33, 1-(6-{2-[2-(2-hydroxy-2-methyl-propyl)-1,2,3,4-tetrahydro-isoquinolin-6-ylmethoxy]-3-methyl-phenyl}-pyridin-2-yl)-5-methoxy-1H-pyrazole-4-carboxylic acid]
120 (≈ 238 µM) | 79 (≈ 156 µM) | 75 (≈ 149 µM) | CCOc1c(C(=O)O)cnn1-c1cccc(-c2cccc(Cl)c2OCc2ccc3c(c2)CCNC3)n1 [Compound 50]
96 (≈ 173 µM) | 79 (≈ 142 µM) | 81 (≈ 146 µM) | COc1c(C(=O)O)cnn1-c1cccc(-c2cccc(C)c2OCc2ccc3c(c2)CCN(C2CCOCC2)C3)n1 [Compound 3]
100 (≈ 166 µM) | 81 (≈ 134 µM) | 83 (≈ 138 µM) | Cc1cccc(-c2cccc(-n3ncc(C(=O)O)c3OC(C)C)n2)c1OCc1ccc2c(c1)CCN(CC1CC(F)(F)C1)C2 [Compound 4, 1-(6-{2-[2-(3,3-difluoro-cyclobutylmethyl)-1,2,3,4-tetrahydro-isoquinolin-6-ylmethoxy]-3-methyl-phenyl}-pyridin-2-yl)-5-isopropoxy-1H-pyrazole-4-carboxylic acid]
